Assay results: ChEMBL document CHEMBL1140567, “2-Aryl benzimidazoles featuring alkyl-linked pendant alcohols and amines as inhibitors of checkpoint kinase Chk2” (Bioorg Med Chem Lett, 2007)
≈ marks a conversion by molar mass, not a printed value.

How the values were obtained:
[1] = Solubility in stimulated intestinal fluid at pH 7 after 3 days; assay type: physicochemical; conditions: simulated intestinal fluid
[2] = Solubility in stimulated gastric fluid at pH 2 umol after 3 days; assay type: physicochemical; conditions: simulated gastric fluid

Row | Structure (SMILES) | solubility at 72 h [1] | solubility at 72 h [2]
1 | NC(=O)c1ccc2[nH]c(-c3ccc(OCCO)cc3)nc2c1 | > 400 µM | > 400 µM
2 | NC(=O)c1ccc2[nH]c(-c3ccc(OCCC4CCCCN4Cc4ccccc4)cc3)nc2c1 (stereo not given) | 155 µM (≈ 70.5 µg/mL) | > 400 µM
3 | NC(=O)c1ccc2[nH]c(-c3ccc(OCCC4CCN(Cc5ccc(Cl)cc5)CC4)cc3)nc2c1 | 2 µM (≈ 0.978 µg/mL) | 179 µM (≈ 87.5 µg/mL)
4 | NC(=O)c1ccc2[nH]c(-c3ccc(OCCC4CCN(Cc5ccccc5)CC4)cc3)nc2c1 | 5 µM (≈ 2.27 µg/mL) | 110 µM (≈ 50 µg/mL)
5 | CN(C)CCCOc1ccc(-c2nc3cc(C(N)=O)ccc3[nH]2)cc1 | > 400 µM | > 400 µM
6 | CN1CCC(Oc2ccc(-c3nc4cc(C(N)=O)ccc4[nH]3)cc2)CC1 | > 400 µM | > 400 µM
7 | NC(=O)c1ccc2[nH]c(-c3ccc(OC4CCC(O)C4)cc3)nc2c1 (stereo not given) | 139 µM (≈ 46.9 µg/mL) | > 400 µM
8 | NC(=O)c1ccc2[nH]c(-c3ccc(OCC4CCNCC4)cc3)nc2c1 | > 400 µM | > 400 µM
9 | Cc1ccc(CN2CCC(CCOc3ccc(-c4nc5cc(C(N)=O)ccc5[nH]4)cc3)CC2)cc1 | 3 µM (≈ 1.41 µg/mL) | 84 µM (≈ 39.4 µg/mL)
10 | NC(=O)c1ccc2[nH]c(-c3ccc(OCCC4CCN(Cc5ccc(Cl)c(Cl)c5)CC4)cc3)nc2c1 | 15 µM (≈ 7.85 µg/mL) | 13 µM (≈ 6.81 µg/mL)
11 | COc1ccc(CN2CCCCC2CCOc2ccc(-c3nc4cc(C(N)=O)ccc4[nH]3)cc2)cc1 (stereo not given) | 84 µM (≈ 40.7 µg/mL) | > 400 µM
12 | NC(=O)c1ccc2[nH]c(-c3ccc(OCCCN4CCCCC4)cc3)nc2c1 | > 400 µM | > 400 µM
13 | NC(=O)c1ccc2[nH]c(-c3ccc(OCCC4CCCCN4Cc4ccc(Cl)c(Cl)c4)cc3)nc2c1 (stereo not given) | 229 µM (≈ 120 µg/mL) | 39 µM (≈ 20.4 µg/mL)
14 | NC(=O)c1ccc2[nH]c(-c3ccc(OCCCO)cc3)nc2c1 | 7 µM (≈ 2.18 µg/mL) | 185 µM (≈ 57.6 µg/mL)
15 | NC(=O)c1ccc2[nH]c(-c3ccc(OCC4CCN(Cc5ccccc5)CC4)cc3)nc2c1 | > 400 µM | > 400 µM
16 | Cc1ccc(CN2CCCCC2CCOc2ccc(-c3nc4cc(C(N)=O)ccc4[nH]3)cc2)cc1 (stereo not given) | 97 µM (≈ 45.5 µg/mL) | > 400 µM
17 | COc1ccc(CN2CCC(CCOc3ccc(-c4nc5cc(C(N)=O)ccc5[nH]4)cc3)CC2)cc1 | < 1 µM | > 400 µM
18 | NC(=O)c1ccc2[nH]c(-c3ccc(OC4CCCNC4)cc3)nc2c1 (stereo not given) | > 400 µM | > 400 µM
19 | NC(=O)c1ccc2[nH]c(-c3ccc(OCCN4CCCCC4)cc3)nc2c1 | > 400 µM | > 400 µM
20 | CC(=O)N1CCC(CCOc2ccc(-c3nc4cc(C(N)=O)ccc4[nH]3)cc2)CC1 | 2 µM (≈ 0.813 µg/mL) | 87 µM (≈ 35.4 µg/mL)
21 | NC(=O)c1ccc2[nH]c(-c3ccc(OCCC4CCN(C(=O)c5ccccc5)CC4)cc3)nc2c1 | 3 µM (≈ 1.41 µg/mL) | 3 µM (≈ 1.41 µg/mL)
22 | NC(=O)c1ccc2[nH]c(-c3ccc(OCC4CCCN(Cc5ccccc5)C4)cc3)nc2c1 (stereo not given) | 267 µM (≈ 118 µg/mL) | > 400 µM
23 | NC(=O)c1ccc2[nH]c(-c3ccc(OCCC4CCCCN4C(=O)c4ccccc4)cc3)nc2c1 (stereo not given) | 18 µM (≈ 8.43 µg/mL) | 28 µM (≈ 13.1 µg/mL)
24 | NC(=O)c1ccc2[nH]c(-c3ccc(OCCC4CCCCN4Cc4ccc(Cl)cc4)cc3)nc2c1 (stereo not given) | 115 µM (≈ 56.2 µg/mL) | > 400 µM
25 | CC(=O)N1CCCCC1CCOc1ccc(-c2nc3cc(C(N)=O)ccc3[nH]2)cc1 (stereo not given) | 193 µM (≈ 78.5 µg/mL) | > 400 µM
